A short description of the series: gradient 5% acetonitrile 3 min, to 50% in 2 min, to 85% in 15 min, held 3 min, 100 µL/min. Particulars: column: Zorbax Extend-C18 2.1 x 50 mm; eluents: water / acetonitrile, 0.1% formic acid. The essentials: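 Over 3 months, pure standards in mixtures of ~100 molecules were run by HPLC coupled to a quadrupole time-of-flight mass spectrometer in positive and negative ionization mode. The column was a Zorbax Extend-C18 (2.1 × 50 mm, 1.8 μm) at 100 μL/min, eluted with water and acetonitrile each holding 0.1% formic acid, with 40 μL dead and 900 μL dwell volumes. Retention time was determined from adduct peaks chosen by software and checked manually.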
For `Cc1csc(-c2ccc(CNC(=O)Cc3cccc(F)c3)cc2)n1`, the RP-LC retention time came out at 848 s. `O=C(NCCN1CCOCC1)c1ccc(-c2c(-c3ccc(F)cc3)ncn2C2CCCCC2)o1` returned an RP-LC retention time of 605 s. In the case of `CCOc1ccc2nc(Nc3ncc4c(n3)CC(c3cccc(Cl)c3)CC4=O)nc(C)c2c1` (stereo not given) it was 899 s; in that of `CCOc1ccc(C(=O)Nc2cc(-c3cn4cccnc4n3)ccc2OC)cc1`, 723 s; in that of `CC(CCc1ccccc1)NC(=O)CCC(=O)N1CCc2c(c(C(=O)N3CCOCC3)nn2C)C1` (stereo not given), 679 s. In the case of `Cc1ccc(CSc2nccc3c2ccn3CC(=O)N2CCN(c3ccccn3)CC2)cc1` it was 604 s; in that of `CCN1CCn2c(nc3cc(C(=O)NCc4ccccc4Br)ccc32)C1=O`, 707 s; in that of `CCN1CCN(C(=O)C2CCN(c3ccc(Sc4ccc(C(C)C)cc4)nn3)CC2)CC1`, 659 s. In turn, `CCCn1c(=O)c(C)nc2cc(-c3noc(-c4ccc5c(c4)OCO5)n3)ccc21` gave an RP-LC retention time of 1150 s. Consider `COC(=O)C(C)NC(=O)N1CCN(c2nc3ccccc3n(Cc3ccccc3)c2=O)CC1` (stereo not given), for which the RP-LC retention time was determined as 869 s. In the case of `O=C(Nc1nc(-c2cccs2)cs1)c1cccc([N+](=O)[O-])c1` it was 936 s; in that of `OCCNCCNCc1ccc(-c2cccc(Cl)c2)o1`, 568 s; in that of `O=C(NC(NC(=O)c1ccccc1)c1ccccc1)c1ccccc1`, 765 s.

`COc1ccc(CN2C[C@@H](CO)[C@H](c3ccncc3)C2)cc1OC` showed an RP-LC retention time of 592 s.

`CCC1Oc2ccc(S(=O)(=O)N3CCC(C(=O)N4CCCC4)CC3)cc2NC1=O` (stereo not given) had an RP-LC retention time of 730 s. In the case of `CCS(=O)(=O)N1CCCc2cc(C(=O)N3CCCCCC3)ccc21` it was 824 s; in that of `CCOc1ccc(C(C)NC(=O)c2cn3ccc(C)cc3n2)cc1` (stereo not given), 697 s; in that of `CC(C)(C)C(=O)C(Oc1ccc(Cl)cc1)n1ccnc1` (stereo not given), 780 s. Take `Cc1ccc2cc(CCC(=O)NCCCN3CCCC(C)C3)c(=O)[nH]c2c1` (stereo not given): the RP-LC retention time was 605 s. In turn, `CCC(C)NC(=O)CN1C(=O)CCc2cc(S(=O)(=O)N3CCC(C)CC3)ccc21` (stereo not given) gave an RP-LC retention time of 858 s.

For `COc1ccc2c(c1)-c1nc(NC(=O)c3cc(Cl)ccc3OC)sc1CC2`, the RP-LC retention time worked out at 1300 s. `Cn1cnc2ccc(-c3noc(CNC(=O)c4cccs4)n3)cc21`: the RP-LC retention time came to 585 s. Compound `Cc1cc(C(=O)NCc2ccc(F)cc2F)nc2cc(-c3cccs3)nn12` returned an RP-LC retention time of 1140 s. As to `CC1(C(=O)NCc2ccccc2)CN(S(=O)(=O)c2ccccc2)CC(=O)N1C1CC1` (stereo not given), the RP-LC retention time was determined as 784 s. In turn, `CN(C1CCc2nn(CC3CC3)c(=O)n2CC1)S(=O)(=O)Cc1ccccc1` (stereo not given) returned an RP-LC retention time of 747 s.

`COc1ccc(N2CCN(C(=O)CN3C(=O)CCc4cc(Br)ccc43)CC2)cc1` registered an RP-LC retention time of 829 s.

`CC(C)CC(=O)N1CCc2cc(CNS(=O)(=O)c3ccc4c(c3)CC(=O)N4C)ccc21`: the RP-LC retention time turned out to be 793 s.

In turn, `CCCn1c(C2CCN(C(=O)c3ccc(Br)o3)C2)nc2cccnc21` (stereo not given) yielded an RP-LC retention time of 735 s. Take `CCCn1c(CCNC(=O)c2ccc(F)cc2)nc2cccnc21`: the RP-LC retention time stood at 651 s. Under `CSc1cccc(NC(=O)Cn2c(Nc3cc(C)cc(C)c3)nc(C)cc2=O)c1` stands 909 s.

`CCn1c(=O)c2cc(C(=O)NCc3cc(C)ccc3C)nn2c2ccccc21` returned an RP-LC retention time of 930 s. `O=C(Nc1cccc(Oc2ccccn2)c1)c1c2c(nn1C1CCS(=O)(=O)C1)CCC2` (stereo not given) showed an RP-LC retention time of 807 s. Under `N#C/C(=C\c1ccc2ccccc2c1)C(=O)c1ccccc1` stands 1090 s; under `COc1ccc(NC(=O)N2CCc3nc(-c4ccccc4)sc3C2)cc1OC`, 820 s; under `O=C(NCc1nc2ccccc2n1CC(=O)N1CCCCCC1)c1ccco1`, 627 s. Turning to `CN(Cc1ccco1)C(=O)c1nc2ccccn2c1-c1ccc(F)cc1`, the RP-LC retention time stood at 705 s. The compound `O=C(Nc1ccc2c(c1)OCCO2)N1CCC(Oc2ccccc2)C1` (stereo not given) gave an RP-LC retention time of 639 s. Under `O=S(=O)(NCc1ccco1)c1cc(-c2nnc(-c3ccccc3)o2)ccc1F` stands 902 s; under `CCc1ccc(CNC(=O)Cn2c(C)cc(-c3nnc(C4CCC4)o3)c2C)cc1`, 965 s. `O=C(CN1C(=O)CCCc2cc(S(=O)(=O)N3CCCCC3)ccc21)NC1CCCCCC1` registered an RP-LC retention time of 942 s. Under `O=C(CSc1nc(N2CCCCC2)nc2ccccc12)Nc1ccccc1` stands 702 s; under `CCCn1ccc2sc(C)c(C(=O)NC3CC3)c2c1=O`, 679 s; under `COc1ccc(OC)c(CNC(=O)c2c(C)oc3c2C2=NCCN2C=N3)c1`, 638 s.

Turning to `CCC1CN(C(=O)N2CCC(C(=O)N3CCN(C(=O)c4ccco4)CC3)CC2)c2ccccc2O1` (stereo not given), the RP-LC retention time was determined as 751 s. Under `Cc1cc(C)n(-c2nc(-c3ccc(Cl)cc3)cs2)n1` stands 1420 s. For the compound `COC(=O)c1c(NCCc2ccc(Cl)cc2)c2ccc(F)cc2[nH]c1=O`, the RP-LC retention time was determined as 795 s. `CCc1cc(=O)n(CC(=O)Nc2ccc3c(c2)OCO3)c(N2CCOCC2)n1` yielded an RP-LC retention time of 671 s. `COC(=O)c1ccc2c(=O)n(CCc3ccccc3)c(N3CCOCC3)nc2c1`: the RP-LC retention time came to 995 s. Under `CN1CCCC1c1nc(C2CN(C(=O)c3ccsc3)C2)no1` (stereo not given) stands 567 s; under `Cc1oc(-c2ccccc2)nc1Cc1noc(-c2ccccc2F)n1`, 675 s; under `O=C(CCC1CCCC1)NCCC1CCN(C(=O)Nc2ccc(F)cc2F)CC1`, 880 s. In turn, `O=C(NCCc1ccccc1)N1C[C@@H]2C[C@H](NS(=O)(=O)c3cccnc3)[C@H]1C2` returned an RP-LC retention time of 679 s. Under `CCS(=O)(=O)NCC(c1cccnc1)N1CCN(c2ccccc2F)CC1` (stereo not given) stands 561 s. Under `O=c1cc(N2CCOCC2)c(-c2ccccc2)n[nH]1` stands 623 s; under `CC1=NS(=O)(=O)N(C)C=C1C(=O)OCc1ccccc1Cl`, 951 s; under `COc1ccc(Nc2c(-c3ccc(N(C)C)cc3)nc3cnc(Br)cn23)cc1OC`, 812 s. Under `COc1ccc(-c2noc(CCCC(=O)Nc3nc(-c4ccc(Cl)cc4)c(C)s3)n2)cc1` stands 1190 s.

For the compound `CCOC(=O)c1sc(NC(=O)c2cccc([N+](=O)[O-])c2)nc1-c1ccccc1`, the RP-LC retention time came to 1100 s. Under `Cc1ccccc1CC(=O)NC(CC(C)C)C(=O)Nc1nc2ccccc2[nH]1` (stereo not given) stands 763 s; under `CNC(=O)c1cc(C)n(C)n1`, 835 s. Under `CCOc1ccc(NC(=O)c2c(C)oc3nc(C)nc(N4CCCC4)c23)cc1` stands 788 s.

With `O=C(NCCc1c[nH]c2ccc(Cl)cc12)c1cc(-c2cccnc2)nc2ccccc12`, the RP-LC retention time stood at 805 s. On to `COc1ccc(OC)c(NC(=O)Cn2nc3n(c2=O)CCCCC3)c1`, for which the RP-LC retention time was 715 s.

Consider `CC(C)N1C(=O)c2cccnc2Sc2cc(NC(=O)COc3ccc(F)cc3)ccc21`, for which the RP-LC retention time is 894 s.

On to `CCN(CC)C(=O)Cn1nc2cc(C)nc(-c3cccc(Cl)c3)n2c1=O`, for which the RP-LC retention time was determined as 790 s.

As for `CCOc1ccccc1-n1ccn(Cc2nc(-c3cccc(F)c3)no2)c(=O)c1=O`, the RP-LC retention time came to 876 s. For `CCn1c(C2CCN(C(=O)c3ccc(C(F)(F)F)s3)C2)nc2cccnc21` (stereo not given), the RP-LC retention time turned out to be 782 s. In the case of `CC(C)CCNC(=O)N1CC(c2nc(-c3ccccc3)no2)C2(CCOCC2)C1` (stereo not given) it was 914 s. In the case of `CC1(c2ccc3ccccc3c2)CCC(=O)O1` (stereo not given) it was 970 s; in that of `Cc1c(C(=O)C(=O)NCC2COc3ccccc3O2)c2ccccc2n1C` (stereo not given), 777 s; in that of `COCCNC(=O)C1CCN(c2cncnc2N2CCCCC2)CC1`, 588 s.

The compound `CCn1cccc1-c1nc(C)c(C(=O)N2CCN(c3cccc(C)c3)C(C)C2)s1` (stereo not given) registered an RP-LC retention time of 1190 s.

`O=C(NCCCN1CCCC1)c1cc(-c2cccnc2)nc2ccccc12` displayed an RP-LC retention time of 562 s.

As to `O=C(NCC1CCN(S(=O)(=O)C2CC2)CC1)Nc1ccccc1C(F)(F)F`, the RP-LC retention time is 765 s. Under `CC(C)CCNC(=O)N1CCC(OC2CCN(Cc3ccccc3)CC2)CC1` stands 641 s; under `COc1ccc(CNC(=O)C2(C)Cn3cnc(C(=O)N4CCc5ccccc54)c3C(=O)N2C2CC2)cc1` (stereo not given), 741 s. In the case of `Cc1ccccc1-c1noc(CCn2nc(-c3ccc4c(c3)OCO4)ccc2=O)n1` it was 945 s; in that of `COc1ccc(NS(=O)(=O)c2cc(-c3[nH]ncc3C(=O)N3CCCC3)oc2C)cc1F`, 701 s. Consider `COc1ccc(N2CCN(C(=O)COc3ccc(NC(=O)C4CC4)cn3)CC2)cc1`, for which the RP-LC retention time was found to be 673 s. `CC(C)C(=O)NCCC1CCN(C(=O)Nc2cc(F)ccc2F)CC1` displayed an RP-LC retention time of 742 s.

Values taken from the METLIN SMRT retention time set (Domingo-Almenara et al. 2019).
